Experimental data reported in ChEMBL document CHEMBL5154702, “Synthesis and biological evaluation of aminobenzamides containing purine moiety as class I histone deacetylases inhibitors” (Bioorg Med Chem, 2022).

Legend:
[1] = molecular target: T1, Histone deacetylase 8 (Homo sapiens, UniProt Q9BY41); experiment: Inhibition of human full-length C-terminal His-tagged HDAC8 expressed in baculovirus infected Sf9 insect cell using fluorogenic HDAC class 2a substrate measured after 30 mins by fluorimetry
T1 sequence (Q9BY41 whole entry): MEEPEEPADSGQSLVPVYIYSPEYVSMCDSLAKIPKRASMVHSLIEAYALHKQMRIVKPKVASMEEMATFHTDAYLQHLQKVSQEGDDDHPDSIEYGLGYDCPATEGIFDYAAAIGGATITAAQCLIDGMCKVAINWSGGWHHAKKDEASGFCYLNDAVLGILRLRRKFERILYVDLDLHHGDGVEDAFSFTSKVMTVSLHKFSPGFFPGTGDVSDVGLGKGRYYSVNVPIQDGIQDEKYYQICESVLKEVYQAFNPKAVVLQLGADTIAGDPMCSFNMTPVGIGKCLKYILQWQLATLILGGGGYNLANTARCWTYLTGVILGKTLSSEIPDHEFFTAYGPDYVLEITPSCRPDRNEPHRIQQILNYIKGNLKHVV

[2] = molecular target: T2, Histone deacetylase (Homo sapiens) (UniProt Q13547+O15379+Q9UBN7+Q92769+Q9UQL6+Q8WUI4+Q9BY41+Q96DB2+P56524+Q9UKV0+Q969S8); experiment: Potency index, ratio of MS-275 IC50 to test compound IC50 for inhibition of HDAC in human HeLa cell nuclear extracts using color de Lys as substrate
[3] = molecular target: T2, Histone deacetylase (Homo sapiens); experiment: Potency index, ratio of SAHA IC50 to test compound IC50 for inhibition of HDAC in human HeLa cell nuclear extracts using color de Lys as substrate
[4] = molecular target: Histone deacetylase 1 (Homo sapiens, UniProt Q13547); experiment: Potency index, ratio of MS-275 IC50 to test compound IC50 for inhibition of recombinant human full-length C-terminal Flag-His6-tagged HDAC1 (1 to 482 residues) expressed in Sf9 insect cells
Histone deacetylase 1, sequence (Q13547 whole entry, the tested form may be a part): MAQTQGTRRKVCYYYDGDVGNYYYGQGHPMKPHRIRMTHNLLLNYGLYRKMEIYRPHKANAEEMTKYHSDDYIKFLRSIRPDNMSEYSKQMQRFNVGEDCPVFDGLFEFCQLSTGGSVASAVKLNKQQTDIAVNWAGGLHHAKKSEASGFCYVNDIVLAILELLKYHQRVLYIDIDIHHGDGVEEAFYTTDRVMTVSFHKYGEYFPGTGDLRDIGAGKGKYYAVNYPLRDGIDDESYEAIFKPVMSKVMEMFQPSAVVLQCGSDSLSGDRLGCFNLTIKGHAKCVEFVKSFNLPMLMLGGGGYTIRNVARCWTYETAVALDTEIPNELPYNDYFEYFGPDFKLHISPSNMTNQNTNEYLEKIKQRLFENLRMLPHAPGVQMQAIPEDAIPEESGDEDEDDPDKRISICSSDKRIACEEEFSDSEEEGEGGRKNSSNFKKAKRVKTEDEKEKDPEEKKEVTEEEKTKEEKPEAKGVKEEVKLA

[5] = tested on: HCT-116; experiment: Antiproliferative activity against human HCT-116 cells measured after 48 hrs by MTT assay; type: functional, cell-based; conditions: HCT-116, 48 h
[6] = tested on: HepG2; experiment: cells; type: functional, cell-based; conditions: Homo sapiens, HepG2, 48 h
[7] = tested on: MDA-MB-231; experiment: Potency index, ratio of MS-275 IC50 to test compound IC50 for antiproliferative activity against human MDA-MB-231 cells; type: functional
[8] = molecular target: Histone deacetylase 1/2/3 (Homo sapiens) (UniProt Q13547+O15379+Q92769); experiment: Inhibition of HDAC1/HDAC2/HDAC3 in human HCT-116 cells assessed as increase in accumulation of acetylated H4K5 measured after 24 hrs by Western blot analysis; type: cell-based; conditions: dose 0.1-10 µM, DDE = dose-dependent effect
[9] = tested on: HCT-116; experiment: Induction of apoptosis in human HCT-116 cells assessed as viable cells at 0.5 uM measured after 24 hrs by Annexin V-FITC/propidium iodide staining based flow cytometry (reference value: 87.3%); type: functional; conditions: read-out: Activity
[10] = tested on: HCT-116; experiment: Induction of apoptosis in human HCT-116 cells assessed as viable cells at 1 uM measured after 24 hrs by Annexin V-FITC/propidium iodide staining based flow cytometry (reference value: 87.3%); type: functional; conditions: read-out: Activity
[11] = tested on: HCT-116; experiment: Induction of apoptosis in human HCT-116 cells assessed as viable cells at 5 uM measured after 24 hrs by Annexin V-FITC/propidium iodide staining based flow cytometry (reference value: 87.3%); type: functional; conditions: read-out: Activity
[12] = tested on: HCT-116; experiment: Induction of apoptosis in human HCT-116 cells assessed as early apoptotic cells at 5 uM measured after 24 hrs by Annexin V-FITC/propidium iodide staining based flow cytometry (reference value: 1.87%); type: functional
[13] = tested on: HCT-116; experiment: Induction of apoptosis in human HCT-116 cells assessed as late apoptotic cells at 5 uM measured after 24 hrs by Annexin V-FITC/propidium iodide staining based flow cytometry (reference value: 3.43%); type: functional
[14] = tested on: HCT-116; experiment: Induction of apoptosis in human HCT-116 cells assessed as necrotic cells at 5 uM measured after 24 hrs by Annexin V-FITC/propidium iodide staining based flow cytometry (reference value: 7.39%); type: functional
[15] = tested on: HCT-116; experiment: Cell cycle arrest in human HCT-116 cells assessed as accumulation of cells at G0/G1 phase at 0.1 uM measured after 24 hrs by propidium iodide staining based flow cytometry (reference value: 58.05%); type: functional
[16] = tested on: HCT-116; experiment: Cell cycle arrest in human HCT-116 cells assessed as accumulation of cells at G2/M phase at 0.1 uM measured after 24 hrs by propidium iodide staining based flow cytometry (reference value: 22.74%); type: functional
[17] = tested on: HCT-116; experiment: Cell cycle arrest in human HCT-116 cells assessed as accumulation of cells at G0/G1 phase at 0.5 uM measured after 24 hrs by propidium iodide staining based flow cytometry (reference value: 58.05%); type: functional
[18] = tested on: HCT-116; experiment: Cell cycle arrest in human HCT-116 cells assessed as accumulation of cells at G0/G1 phase at 5 uM measured after 24 hrs by propidium iodide staining based flow cytometry (reference value: 58.05%); type: functional
[19] = tested on: HCT-116; experiment: Cell cycle arrest in human HCT-116 cells assessed as accumulation of cells at G2/M phase at 5 uM measured after 24 hrs by propidium iodide staining based flow cytometry (reference value: 22.74%); type: functional
[20] = tested on: HCT-116; experiment: Cell cycle arrest in human HCT-116 cells assessed as accumulation of cells at G0/G1 phase at 10 uM measured after 24 hrs by propidium iodide staining based flow cytometry (reference value: 58.05%); type: functional
[21] = tested on: HCT-116; experiment: Cell cycle arrest in human HCT-116 cells assessed as accumulation of cells at G2/M phase at 10 uM measured after 24 hrs by propidium iodide staining based flow cytometry (reference value: 22.74%); type: functional
[22] = tested on: HCT-116; experiment: Cell cycle arrest in human HCT-116 cells assessed as accumulation of cells at G0/G1 phase at 10 uM measured after 6 hrs by propidium iodide staining based flow cytometry (reference value: 58.05%); type: functional
[23] = tested on: HCT-116; experiment: Cell cycle arrest in human HCT-116 cells assessed as accumulation of cells at G2/M phase at 10 uM measured after 12 hrs by propidium iodide staining based flow cytometry (reference value: 22.74%); type: functional
[24] = tested on: HCT-116; experiment: Cell cycle arrest in human HCT-116 cells assessed as down regulation of cyclin D1 expression measured after 24 hrs by Western blot analysis; type: functional, cell-based; conditions: dose 0.1-10 µM, DDE = dose-dependent effect
[25] = tested on: HCT-116; experiment: Cell cycle arrest in human HCT-116 cells assessed as down regulation of CDK2 expression at 5 uM by Western blot analysis; type: functional, cell-based; conditions: time 6-48 hrs, TDE = time-dependent effect
[26] = tested on: HCT-116; experiment: Cell cycle arrest in human HCT-116 cells assessed as up regulation of p21 expression at 5 uM by Western blot analysis; type: functional, cell-based; conditions: time 6-48 hrs, TDE = time-dependent effect
[27] = tested on: HCT-116; experiment: Cell cycle arrest in human HCT-116 cells assessed as down regulation of Bcl-2 expression measured after 24 hrs by Western blot analysis; type: functional, cell-based; conditions: dose 0.1-10 µM, DDE = dose-dependent effect
[28] = tested on: HCT-116; experiment: Cell cycle arrest in human HCT-116 cells assessed as down regulation of Bcl-2 expression at 5 uM by Western blot analysis; type: functional, cell-based; conditions: time 6-48 hrs, TDE = time-dependent effect
[29] = Intrinsic clearance in dog liver microsomes assessed per mg protein at 13.8 uM by HPLC analysis; type: ADME, Canis lupus familiaris, Microsome
[30] = Intrinsic clearance in human liver microsomes assessed per mg protein at 13.8 uM by HPLC analysis; type: ADME, Microsome

Structure (SMILES): CCCCNc1nc(Cl)nc2c1ncn2Cc1ccc(C(=O)Nc2ccccc2N)cc1
- IC50 [1]: 0.948 µM
- Ratio IC50 [2]: 19
- Ratio IC50 [3]: 4
- Ratio IC50 [4]: 12
- IC50 [5]: 0.5 µM
- IC50 [6]: 1.29 µM
- Ratio IC50 [7]: 4
- inhibition [8]: Dde
- viability at 0.5 µM [9]: 64.3%
- viability at 1 µM [10]: 40.4%
- viability at 5 µM [11]: 18.4%
- Activity [12]: 70.6%
- Activity [13]: 10.1%
- Activity [14]: 0.902%
- Activity [15]: 59.1%
- Activity [16]: 23.95%
- Activity [17]: 64.42%
- Activity [18]: 67.96%
- Activity [19]: 14.39%
- Activity [20]: 73.05%
- Activity [21]: 11.15%
- Activity [22]: 65.62%
- Activity [23]: 18.82%
- Activity [24]: Dde
- Activity [25]: Tde
- Activity [26]: Tde
- Activity [27]: Dde
- Activity [28]: Tde
- CLint [29]: 3.1 µL/min/mg
- CLint [30]: 2.5 µL/min/mg
